Assay results as given in patent US10519169B2, “3-(1H-pyrrolo[2,3-C]pyridin-2-yl)-1 H-pyrazolo[4,3-B]pyridines and therapeutic uses thereof” (Samumed, LLC, priority 2015, dated 2019).

Tests used:
IL-6 = IL-6 inhibition in LPS-stimulated THP-1 cells (HTRF); format: cell-based; details: Homo sapiens; for EC50: LPS 500 ng/mL, 22 hours, IL6 HTRF; for inhibition at 10 µM: given for EC50 >10 μM, LPS, IL6, at 10 M [sic], read-out: percent inhibition at 10 M
How it was run: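 THP-1 monocytes, serum-reduced (1% FBS) for 24 h, were preincubated 2 h with compound at 0.1% DMSO (10-point, 1:3 dilutions from 10 μM), then stimulated with 500 ng/mL LPS for 22 h at 37 °C. IL-6 was quantified by HTRF (665/620 nm ratio), normalized to DMSO. EC50 came from 4-parameter regression, or % inhibition at 10 μM.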

[1] = test system: Wnt activity (Sp5-Luc reporter, TCF/LEF binding sites) in SW480 colon carcinoma cells; test: Wnt activity screening assay, Sp5-Luc reporter gene in SW480 cells; format: cell-based; details: Homo sapiens; for EC50: overnight incubation; for inhibition at 10 µM: given for EC50 >10 μM, read-out: percent inhibition at 10 μM
How it was run: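 Luminescence (BrightGlo) was normalised to DMSO-only wells and fitted with a four-parameter variable-slope model for EC50; beyond 10 μM, % inhibition at 10 μM is given. Stable Sp5-Luc SW480 reporter cells, 4,000/well in 1% FBS, were exposed overnight at 37 °C to compounds, top 10 μM, 1:3 dilutions, 0.1% DMSO.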

Row | Compound | EC50 (IL-6) | EC50 [1] | inhibition at 10 µM (IL-6) | inhibition at 10 µM [1]
1 | O=C(Nc1cncc(-c2ccc3[nH]nc(-c4cc5ccncc5[nH]4)c3n2)c1)C1CCCC1 [Compound 274, N-(5-(3-(1H-Pyrrolo[2,3-c]pyridin-2-yl)-1H-pyrazolo[4,3-b]pyridin-5-yl)pyridin-3-yl)cyclopentanecarboxamide] | 235 nM | 2630 nM |  | 
2 | c1ccc(-c2ccc3[nH]nc(-c4cc5ccncc5[nH]4)c3n2)nc1 [Compound 280, 5-(Pyridin-2-yl)-3-(1H-pyrrolo[2,3-c]pyridin-2-yl)-1H-pyrazolo[4,3-b]pyridine] | > 10000 nM | > 10000 nM | 47.2% | 2.1%
3 | O=C(Cc1ccccc1)Nc1cncc(-c2ccc3[nH]nc(-c4cc5c(-c6ccoc6)cncc5[nH]4)c3n2)c1 [Compound 318, N-(5-(3-(4-(Furan-3-yl)-1H-pyrrolo[2,3-c]pyridin-2-yl)-1H-pyrazolo[4,3-b]pyridin-5-yl)pyridin-3-yl)-2-phenylacetamide] | > 10000 nM | > 10000 nM | 30.9% | 0%
4 | Cc1ccncc1-c1ccc2[nH]nc(-c3cc4c(-c5cc(F)cc(CNS(C)(=O)=O)c5)cncc4[nH]3)c2n1 [Compound 481, N-(3-Fluoro-5-(2-(5-(4-methylpyridin-3-yl)-1H-pyrazolo[4,3-b]pyridin-3-yl)-1H-pyrrolo[2,3-c]pyridin-4-yl)benzyl)methanesulfonamide] | 115 nM | 980 nM |  | 
5 | CS(=O)(=O)NCc1cc(F)cc(-c2cncc3[nH]c(-c4n[nH]c5ccc(-c6cncc(CN7CCCCC7)c6)nc45)cc23)c1 [Compound 491, N-(3-Fluoro-5-(2-(5-(5-(piperidin-1-ylmethyl)pyridin-3-yl)-1H-pyrazolo[4,3-b]pyridin-3-yl)-1H-pyrrolo[2,3-c]pyridin-4-yl)benzyl)methanesulfonamide] | 213 nM | 1300 nM |  | 
6 | CS(=O)(=O)NCc1cc(F)cc(-c2cncc3[nH]c(-c4n[nH]c5ccc(-c6cncnc6)nc45)cc23)c1 [Compound 503, N-(3-Fluoro-5-(2-(5-(pyrimidin-5-yl)-1H-pyrazolo[4,3-b]pyridin-3-yl)-1H-pyrrolo[2,3-c]pyridin-4-yl)benzyl)methane sulfonamide] | 649 nM | > 10000 nM |  | 46.4%
7 | CS(=O)(=O)NCc1cc(F)cc(-c2cncc3[nH]c(-c4n[nH]c5ccc(-c6ccccn6)nc45)cc23)c1 [Compound 504, N-(3-Fluoro-5-(2-(5-(pyridin-2-yl)-1H-pyrazolo[4,3-b]pyridin-3-yl)-1H-pyrrolo[2,3-c]pyridin-4-yl)benzyl)methanesulfonamide] | 31 nM | 3650 nM |  | 
8 | Fc1cccc(-c2cncc3[nH]c(-c4n[nH]c5ccc(C6CCNCC6)nc45)cc23)c1 [Compound 505, 3-(4-(3-Fluorophenyl)-1H-pyrrolo[2,3-c]pyridin-2-yl)-5-(piperidin-4-yl)-1H-pyrazolo[4,3-b]pyridine] | 1110 nM | > 10000 nM |  | 32.9%
9 | Fc1ccccc1-c1cncc2[nH]c(-c3n[nH]c4ccc(-c5cn[nH]c5)nc34)cc12 [Compound 539, 3-(4-(2-Fluorophenyl)-1H-pyrrolo[2,3-c]pyridin-2-yl)-5-(1H-pyrazol-4-yl)-1H-pyrazolo[4,3-b]pyridine] | 160 nM | 1200 nM |  | 
10 | Cn1cc(-c2ccc3[nH]nc(-c4cc5c(-c6cccnc6)cncc5[nH]4)c3n2)cn1 [Compound 556, 5-(1-Methyl-1H-pyrazol-4-yl)-3-(4-(pyridin-3-yl)-1H-pyrrolo[2,3-c]pyridin-2-yl)-1H-pyrazolo[4,3-b]pyridine] | 3710 nM | 7020 nM |  | 
11 | Cc1ncc(-c2ccc3[nH]nc(-c4cc5c(-c6ccncc6)cncc5[nH]4)c3n2)n1C [Compound 573, 5-(1,2-Dimethyl-1H-imidazol-5-yl)-3-(4-(pyridin-4-yl)-1H-pyrrolo[2,3-c]pyridin-2-yl)-1H-pyrazolo[4,3-b]pyridine] | > 10000 nM | > 10000 nM | 0% | 43.9%
12 | c1cc(-c2cncc3[nH]c(-c4n[nH]c5ccc(-c6cncc(OCCN7CCCC7)c6)nc45)cc23)co1 [Compound 690, 3-(4-(Furan-3-yl)-1H-pyrrolo[2,3-c]pyridin-2-yl)-5-(5-(2-(pyrrolidin-1-yl)ethoxy)pyridin-3-yl)-1H-pyrazolo[4,3-b]pyridine] | > 10000 nM | > 10000 nM | 9.7% | 7.4%
